What all share (assay type): cell-based
Test [1] deals with T1, hA1 AR (Homo sapiens, UniProt P30542).
T1 construct: host or cells: CHO-A1 (CHO cells expressing hA1 AR)
T1 sequence (P30542 1-326): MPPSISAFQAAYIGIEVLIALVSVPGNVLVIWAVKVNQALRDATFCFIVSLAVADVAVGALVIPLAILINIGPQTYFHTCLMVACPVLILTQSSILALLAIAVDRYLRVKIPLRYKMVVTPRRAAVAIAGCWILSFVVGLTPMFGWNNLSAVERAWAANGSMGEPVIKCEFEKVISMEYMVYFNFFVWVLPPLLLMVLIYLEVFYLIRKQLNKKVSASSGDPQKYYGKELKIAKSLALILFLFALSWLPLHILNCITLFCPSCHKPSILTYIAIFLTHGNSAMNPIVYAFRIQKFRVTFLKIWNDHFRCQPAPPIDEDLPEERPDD
Briefly: cAMP accumulation assay, antagonist mode, hA1 AR. Particulars: in presence of NECA, CHO-A1 cells. The text has this: (§1) To determine whether 1,3,5-triazine scaffold derivatives behave as agonists or antagonists, we performed cAMP accumulation assays with 11a and 11b at hA1 and hA3 AR. We confirmed whether the test compounds behave as antagonists by measuring the concentration change in cAMP in the presence of a full agonist 5-N-ethylcarboxamido adenosine (NECA) using antagonist mode assays. We also confirmed whether the test compounds could behave as agonists by comparing the relative percentage activation of NECA using agonist mode assays.
(§2) hA1 and hA3 AR functional experiments were carried out in CHO-A1 and CHO-A3#18 cell line, respectively. The day before the assay, the cells were seeded on the 96-well culture plate (Falcon 353072). The cells were washed with wash buffer (Nutrient Mixture F12 Ham’s (Sigma N6658) for hA1 AR; Dulbecco’s modified eagle’s medium nutrient mixture F-12 ham (Sigma D8062) for hA3 AR; 25 mM Hepes; pH = 7.4). Wash buffer was replaced by incubation buffer (Mixture F12 Ham’s (Sigma N6658) for hA1 AR; Dulbecco’s modified eagle’s medium nutrient mixture F-12 ham (Sigma D8062) for hA3 AR; 25 mM Hepes, 20 µM Rolipram (Sigma R6520); pH = 7.4). […] After incubation, the amount of cAMP was determined using cAMP Biotrak Enzyme immunoassay (EIA) System Kit (GE Healthcare RPN225).

Test [2] addresses T1, hA1 AR. Briefly: cAMP accumulation assay, agonist mode, hA1 AR. Conditions: relative to NECA, CHO-A1 cells.
Excerpt: as §1
(§3) hA1 and hA3 AR functional experiments were carried out in CHO-A1 and CHO-A3#18 cell line, respectively. The day before the assay, the cells were seeded on the 96-well culture plate (Falcon 353072). The cells were washed with wash buffer (Mixture F12 Ham’s (Sigma N6658) for hA1 AR; Dulbecco’s modified eagle’s medium nutrient mixture F-12 ham (Sigma D8062) for hA3 AR; 25mM Hepes; pH = 7.4). Wash buffer was replaced by incubation buffer (Mixture F12 Ham’s (Sigma N6658) for hA1 AR; Dulbecco’s modified eagle’s medium nutrient mixture F-12 ham (Sigma D8062) for hA3 AR; 25 mM Hepes, 20 µM Rolipram (Sigma R6520); pH = 7.4). The cells were pre-incubated at 37 °C for 15 min. […] After incubation, the amount of cAMP was determined using cAMP Biotrak Enzyme immunoassay (EIA) System Kit (GE Healthcare RPN225).

In test [3] the target is T2, hA3 AR (Homo sapiens, UniProt P0DMS8).
T2 sequence (P0DMS8 1-318): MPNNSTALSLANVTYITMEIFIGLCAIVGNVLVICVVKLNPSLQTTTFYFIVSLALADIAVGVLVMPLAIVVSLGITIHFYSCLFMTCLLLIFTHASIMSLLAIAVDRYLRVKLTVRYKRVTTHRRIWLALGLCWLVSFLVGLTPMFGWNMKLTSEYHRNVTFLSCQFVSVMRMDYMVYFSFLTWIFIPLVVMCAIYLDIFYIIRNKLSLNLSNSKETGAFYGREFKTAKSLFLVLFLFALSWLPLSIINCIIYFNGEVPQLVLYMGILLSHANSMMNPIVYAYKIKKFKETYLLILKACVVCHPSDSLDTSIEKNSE
Briefly: cAMP accumulation assay, antagonist mode, hA3 AR. The arrangement: expressed in transfected cells. Conditions: in presence of NECA, CHO-A3#18 cells.
Excerpt: as §1, §2
On the technique in general: Changes in cAMP serve as a functional read-out for many G protein-coupled receptors.

The target in test [4] is T2, hA3 AR. Briefly: cAMP accumulation assay, agonist mode, hA3 AR. Conditions: relative to NECA, CHO-A3#18 cells. The arrangement: expressed in transfected cells.
Excerpt: as §1, §3

In the case of `COc1ccc(Nc2nc(N)nc(-c3ccc(F)cc3)n2)cc1F` [Compound 11b, N^2-(3-fluoro-4-methoxyphenyl)-6-(4-fluorophenyl)-1,3,5-triazine-2,4-diamine], the “Percentage inhibition in antagonist mode, hA1 AR” value at hA1 AR [1] came to 60%. Moreover, the “Percentage activation in agonist mode, hA1 AR” value at hA1 AR [2] amounted to 23%. Besides, the “Percentage inhibition in antagonist mode, hA3 AR” value at hA3 AR [3] is recorded as 88%. Moreover, the “Percentage activation in agonist mode, hA3 AR” value on hA3 AR [4] stood at 6%.
The matching figures for `COc1ccc(-c2nc(N)nc(Nc3ccc(OC)c(F)c3)n2)cc1` [Compound 11a, N^2-(3-fluoro-4-methoxyphenyl)-6-(4-methoxyphenyl)-1,3,5-triazine-2,4-diamine]: 1%, 11%, 77% and 17%.

For the origin of these results see PMC9268102, “Design, Synthesis and Biological Evaluation of 1,3,5-Triazine Derivatives Targeting hA1 and hA3 Adenosine Receptor” (Molecules, 2022).
